Test results taken from ChEMBL document CHEMBL4428084, “Discovery and Optimization of N-(4-(3-Aminophenyl)thiazol-2-yl)acetamide as a Novel Scaffold Active against Sensitive and Resistant Cancer Cells” (J Med Chem, 2016).
pEC50: −log10 of the molar value. The source made the active and inactive calls. No cut-off for these calls is given here.

Experiments:
A-375 [1] = test: Cytotoxicity against vemurafenib-sensitive human A375 cells assessed as cell viability at 10 uM after 48 hrs by trypan blue exclusion assay relative to control; type: functional; settings: A-375, 48 h, read-out: Activity
A-375 [2] = test: Cytotoxicity against vemurafenib-sensitive human A375 cells assessed as cell viability at 5 uM after 48 hrs by trypan blue exclusion assay relative to control; type: functional; settings: A-375, 48 h, read-out: Activity
[3] = Cytotoxicity against vemurafenib-resistant human A375 R5C3 cells assessed as cell viability at 10 uM after 48 hrs by trypan blue exclusion assay relative to control; type: functional; settings: A-375, 48 h, read-out: Activity
[4] = Cytotoxicity against vemurafenib-resistant human A375 R5C3 cells assessed as cell viability at 1 uM after 48 hrs by trypan blue exclusion assay relative to control; type: functional; settings: A-375, 48 h, read-out: Activity
[5] = Cytotoxicity against vemurafenib-resistant human A375 RIV cells assessed as cell viability at 10 uM after 48 hrs by trypan blue exclusion assay relative to control; type: functional; settings: A-375, 48 h, read-out: Activity
[6] = Cytotoxicity against vemurafenib-resistant human A375 RIV cells assessed as cell viability at 1 uM after 48 hrs by trypan blue exclusion assay relative to control; type: functional; settings: A-375, 48 h, read-out: Activity
[7] = Cytotoxicity against vemurafenib-resistant human A375 RIV cells assessed as cell viability at 5 uM after 48 hrs by trypan blue exclusion assay relative to control; type: functional; settings: A-375, 48 h, read-out: Activity
K562 [8] = test: Cytotoxicity against imatinib-sensitive human K562 cells assessed as cell viability at 10 uM after 48 hrs by trypan blue exclusion assay relative to control; type: functional; settings: K562, 48 h, read-out: Activity
K562 [9] = test: Cytotoxicity against imatinib-resistant human K562 cells assessed as cell viability at 10 uM after 48 hrs by trypan blue exclusion assay relative to control; type: functional; settings: K562, 48 h, read-out: Activity
BXPC-3 [10] = test: Cytotoxicity against gemcitabine-sensitive human BxPC3 cells assessed as cell viability at 10 uM after 48 hrs by trypan blue exclusion assay relative to control; type: functional; settings: BXPC-3, 48 h, read-out: Activity
MIA PaCa-2 [11] = test: Cytotoxicity against gemcitabine-resistant human MIAPaCa2 cells assessed as cell viability at 10 uM after 48 hrs by trypan blue exclusion assay relative to control; type: functional; settings: MIA PaCa-2, 48 h, read-out: Activity
A-375 [12] = test: Cytotoxicity against vemurafenib-sensitive human A375 cells assessed as reduction in cell viability after 48 hrs by trypan blue exclusion assay; type: functional, cell-based; settings: A-375, 48 h
[13] = Cytotoxicity against vemurafenib-resistant human A375 RIV cells assessed as reduction in cell viability after 48 hrs by trypan blue exclusion assay; type: functional, cell-based; settings: A-375, 48 h
[14] = Cytotoxicity against vemurafenib-resistant human A375 R5C3 cells assessed as reduction in cell viability after 48 hrs by trypan blue exclusion assay; type: functional, cell-based; settings: A-375, 48 h
K562 [15] = test: Cytotoxicity against imatinib-sensitive human K562 cells assessed as reduction in cell viability after 48 hrs by trypan blue exclusion assay; type: functional, cell-based; settings: K562, 48 h
K562 [16] = test: Cytotoxicity against imatinib-resistant human K562 cells assessed as reduction in cell viability after 48 hrs by trypan blue exclusion assay; type: functional, cell-based; settings: K562, 48 h
BXPC-3 [17] = test: Cytotoxicity against gemcitabine-sensitive human BxPC3 cells assessed as reduction in cell viability after 48 hrs by trypan blue exclusion assay; type: functional, cell-based; settings: BXPC-3, 48 h
MIA PaCa-2 [18] = test: Cytotoxicity against gemcitabine-resistant human MIAPaCa2 cells assessed as reduction in cell viability after 48 hrs by trypan blue exclusion assay; type: functional, cell-based; settings: MIA PaCa-2, 48 h
[19] = Cytotoxicity against human keratinocytes assessed as cell viability at 5 uM after 48 hrs by trypan blue exclusion assay relative to control; type: cell-based, Keratinocyte; settings: read-out: Activity
[20] = Cytotoxicity against human fibroblasts assessed as cell viability at 5 uM after 48 hrs by trypan blue exclusion assay relative to control; type: cell-based, Fibroblast; settings: read-out: Activity
[21] = Cytotoxicity against human keratinocytes assessed as cell viability at 10 uM after 48 hrs by trypan blue exclusion assay relative to control; type: cell-based, Keratinocyte; settings: read-out: Activity
[22] = Cytotoxicity against human fibroblasts assessed as cell viability at 10 uM after 48 hrs by trypan blue exclusion assay relative to control; type: cell-based, Fibroblast; settings: read-out: Activity
A-375 [23] = test: Inhibition of colony formation in human A375 cells at 5 uM after 10 days by crystal violet staining based assay relative to control; type: functional; settings: A-375, 240 h
A-375 [24] = test: Inhibition of colony formation in human A375 cells at 10 uM after 10 days by crystal violet staining based assay relative to control; type: functional; settings: A-375, 240 h
A-375 [25] = test: Inhibition of colony formation in human A375 cells after 10 days by crystal violet staining based assay; type: functional, cell-based
A-375 [26] = test: Induction of apoptosis in human A375 cells assessed as cells with active caspase-3 at 10 uM after 48 hrs by flow cytometry (reference value: 4.16%); type: functional
A-375 [27] = test: Induction of apoptosis in human A375 cells assessed as increase in cleaved PARP expression at 10 uM after 24 hrs by Western blot analysis; type: functional, cell-based
A-375 [28] = test: Induction of autophagy in human A375 cells assessed as increase in LC3-1 to LC3-2 conversion at 10 uM after 24 hrs by Western blot analysis; type: functional, cell-based
A-375 [29] = test: Induction of autophagy in human A375 cells assessed as increase in LC3-2 expression at 10 uM after 12 hrs by Hoechst staining based immunofluorescence method; type: functional, cell-based
A-375 [30] = test: Induction of apoptosis in human A375 cells assessed as increase in cleaved PARP expression at 10 uM after 48 hrs in presence of pan-caspase inhibitor QVD by Western blot analysis; type: functional, cell-based
A-375 [31] = test: Induction of autophagy in human A375 cells assessed as increase in LC3B-2 expression at 10 uM after 48 hrs in presence of LC3 siRNA by Western blot analysis; type: functional, cell-based
A-375 [32] = test: Cytotoxicity against human A375 cells assessed as reduction in cell viability at 10 uM after 48 hrs in presence of pan-caspase inhibitor QVD/LC3 siRNA by trypan blue exclusion assay; type: functional, cell-based
[33] = Half life in mouse liver microsomes at 37 degC; type: ADME, Microsome
[34] = Terminal half life in mouse at 1 mg/kg, iv; type: ADME, organism-based; settings: in vivo, read-out: beta t1/2
[35] = Total clearance in mouse at 1 mg/kg, iv measured 2 hrs post dose; type: ADME, organism-based; settings: in vivo
[36] = Volume of distribution in mouse at 1 mg/kg, iv measured 2 hrs post dose; type: ADME, organism-based; settings: in vivo
[37] = AUC (0 to 2 hrs) in mouse at 1 mg/kg, iv; type: ADME, organism-based; parameters: dose 1 mg/kg, time < 2 hr, route intravenous; settings: in vivo
[38] = Toxicity in mouse assessed as behavioral modification at 1 mg/kg, iv; type: organism-based; settings: in vivo
A-375 [39] = test: Antitumor activity against human A375 cells xenografted in immuno-deficient nude Balb/c mouse assessed as tumor growth inhibition at 0.7 mg/kg/day, ip measured on day 31 post treatment; type: functional, organism-based
[40] = Toxicity in nude Balb/c mouse xenografted with human A375 cells assessed as behavioral modification at 0.7 mg/kg/day, ip; type: organism-based; settings: in vivo
[41] = Toxicity in nude Balb/c mouse xenografted with human A375 cells assessed as effect on body mass at 0.7 mg/kg/day, ip; type: organism-based; settings: in vivo
[42] = Toxicity in nude Balb/c mouse xenografted with human A375 cells assessed as diet disturbance at 0.7 mg/kg/day, ip; type: organism-based; settings: in vivo
A-375 [43] = test: Induction of apoptosis in human A375 cells xenografted in immuno-deficient nude Balb/c mouse assessed as increase in cleaved PARP expression in tumor at 0.7 mg/kg/day, ip measured on day 31 post treatment by Western blot analysis; type: functional, organism-based
A-375 [44] = test: Induction of autophagy in human A375 cells xenografted in immuno-deficient nude Balb/c mouse assessed as increase in LC3-2 expression in tumor at 0.7 mg/kg/day, ip measured on day 31 post treatment by Western blot analysis; type: functional, organism-based
A-375 [45] = test: Inhibition of colony formation in human A375 cells assessed as induction of less dense colony level at 5 and 10 uM after 10 days by crystal violet staining based assay relative to control; type: functional, cell-based

- half-life [33]: > 45 min
- half-life [34]: 47 min
- clearance [35]: 43 mL/min/kg
- Vd [36]: 2.91 L/kg
- AUC(0-t) at 2 h [37]: 389 ng·h/mL
Structure (SMILES): CCCCCCC#Cc1ccc(S(=O)(=O)Nc2cccc(-c3csc(NC(C)=O)n3)c2)cc1
- viability at 10 µM (A-375 [1]): < 1%
- viability at 5 µM (A-375 [2]): < 1%
- viability at 10 µM [3]: < 1%
- viability at 1 µM [4]: 83%
- viability at 10 µM [5]: < 1%
- viability at 1 µM [6]: 12%
- viability at 5 µM [7]: 0.3%
- viability at 10 µM (K562 [8]): 0.6%
- viability at 10 µM (K562 [9]): 3.4%
- viability at 10 µM (BXPC-3 [10]): < 1%
- viability at 10 µM (MIA PaCa-2 [11]): < 1%
- pEC50 (A-375 [12]): 6.25
- pEC50 [13]: 6.32
- pEC50 [14]: 5.88
- pEC50 (K562 [15]): 5.85
- pEC50 (K562 [16]): 5.79
- pEC50 (BXPC-3 [17]): 6.42
- pEC50 (MIA PaCa-2 [18]): 6.19
- viability at 48 h, 5 µM [19]: 91.2%
- viability at 48 h, 5 µM [20]: 91.5%
- viability at 48 h, 10 µM [21]: 93.4%
- viability at 48 h, 10 µM [22]: 85.1%
- inhibition at 5 µM (A-375 [23]): 77%
- inhibition at 10 µM (A-375 [24]): 94%
- inhibition (A-375 [25]): Dose-dependent effect
- Activity (A-375 [26]): 48 - 48.4%
- Activity (A-375 [27]): Active
- Activity (A-375 [28]): Active
- Activity (A-375 [29]): Active
- Activity (A-375 [30]): inactive
- Activity (A-375 [31]): inactive
- Activity (A-375 [32]): inactive
- Activity [38]: Non-Toxic
- TGI (A-375 [39]): Active
- Activity [40]: Non-Toxic
- Activity [41]: Non-Toxic
- Activity [42]: Non-Toxic
- Activity (A-375 [43]): Active
- Activity (A-375 [44]): Active
- inhibition (A-375 [45]): Active
